Test results from patent US20020151595A1, “Carboxylic acid amides having antithrombotic activity” (priority 2001, published 2002).

These compounds were tested against T1, human factor Xa (Homo sapiens, UniProt P00742) (assay: Inhibition of factor Xa, enzyme-kinetic measurement with chromogenic substrate). Conditions: chromogenic substrate Chromozym X 200 μMol/l, pH 8.0, 37° C., photometric at 405 nm.
T1 construct: human factor Xa; purchased Roche
T1 sequence (P00742 235-488 limits assumed): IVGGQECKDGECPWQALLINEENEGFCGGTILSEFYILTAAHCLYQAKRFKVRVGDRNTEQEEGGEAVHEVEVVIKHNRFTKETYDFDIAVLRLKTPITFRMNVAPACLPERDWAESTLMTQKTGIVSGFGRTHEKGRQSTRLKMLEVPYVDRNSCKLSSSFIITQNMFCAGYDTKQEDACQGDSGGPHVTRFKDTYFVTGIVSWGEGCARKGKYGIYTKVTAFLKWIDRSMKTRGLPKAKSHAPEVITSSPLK
T1 sequence (P00742 41-179 partner limits assumed): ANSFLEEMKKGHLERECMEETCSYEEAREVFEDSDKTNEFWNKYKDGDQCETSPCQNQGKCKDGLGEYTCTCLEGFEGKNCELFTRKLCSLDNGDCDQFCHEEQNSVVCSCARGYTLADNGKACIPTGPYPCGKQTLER
Type: biochemical
Method: Method: Enzyme-kinetic measurement with chromogenic substrate. The quantity of anpnitroaniline (pNA) released from the colourless chromogenic substrate by human factor Xa is determined photometrically at 405 nm. It is proportional to the activity of the enzyme used. The inhibition of the enzyme activity by the test substance (in relation to the solvent control) is determined at various concentrations of test substance and from this the IC50 is calculated, as the concentration which inhibits the factor Xa used by 50%.
Material: Tris(hydroxymethyl)-aminomethane buffer (100 mmol) and sodium chloride (150 mMol), pH 8.0
Factor Xa (Roche), spec. activity: 10 U/0.5 ml, final concentration: 0.175 U/ml per reaction mixture
Substrate Chromozym X (Roche), final concentration: 200 μMol/l per reaction mixture
Procedure: 10 μl of a 23.5-times concentrated starting solution of the test substance or solvent (control), 175 μl of tris(hydroxymethyl)-aminomethane buffer and 25 μl of a 1.65 U/ml Factor Xa working solution are incubated for 10 minutes at 37° C. After the addition of 25 μl of Chromozym X working solution ([…]) the sample is measured in a photometer (SpectraMax 250) at 405 nm for 150 seconds at 37° C.
1. Determining the maximum increase (deltaOD/minutes) over 3 measuring points.
2. Determining the % inhibition based on the solvent control.
3. Plotting a dosage/activity curve (% inhibition vs substance concentration).
4. Determining the IC50 by interpolating the X value (substance concentration) of the dosage/activity curve at Y=50% inhibition.
An IC50 of 0.028 µM was found for Cc1cc(NC(=O)C(C)(C)c2cccc(C(=N)N)c2)ccc1C(=O)N1CCCC1 [(1)] in this work.
An IC50 of 0.32 µM was found for Cc1cc(NC(=O)Cc2cc(C(=N)N)ccc2O)ccc1C(=O)C1CCCNC1 (stereo not shown) [(2)] in this work.
An IC50 of 0.033 µM was found for N=C(N)c1ccc(O)c(CC(=O)Nc2ccc(C(=O)N3CCCC3)c(Cl)c2)c1 [(3)] in this work.
An IC50 of 0.011 µM was found for N=C(N)c1ccc(O)c(CC(=O)Nc2ccc(C(=O)N3CCCC3)c(C(F)(F)F)c2)c1 [(4)] in this work.
